Columns and labels:
P2X purinoceptor 4 = P2X purinoceptor 4 (Homo sapiens, UniProt Q99571); assay: Antagonist activity at human P2X4 receptor overexpressed in human 1321N1 cells assessed as inhibition of ATP-induced calcium responses by Fluo-4 AM/Ca2+ Flux assay; type: cell-based
[1] = Metabolic stability in C57BL/6 mouse liver microsomes assessed as remaining parent compound by UPLC-UV/MS analysis; type: ADME, Microsome
[2] = Lipophilicity, logD of compound in n-octanol and buffer at pH 7.4 by LC-MS analysis; type: physicochemical
[3] = Plasma protein binding in unknown origin; type: ADME, cell-free; details: read-out: PPB (converted)
THP-1 = assay: Inhibition of NLRP3 inflammasome activation in LPS-activated human THP-1 cells assessed as inhibition of LPS/ATP induced IL-1beta secretion at 100 nM preincubated with PMA for 24 hrs followed further stimulated with LPS for 3 hrs and further incubated with compound and ATP for 30 mins by ELISA method; type: cell-based
[4] = Stability in human serum measured up to 90 mins at 3.1 to 8.7 MBq by analytical radio-HPLC analysis; type: ADME, cell-free; details: dose 3.1-8.7 MBq, read-out: Stability
[5] = In vivo biodistribution in adult female C57Bl/6 mouse assessed as accumulation in gall bladder at about 5 MBq, iv measured after 30 mins by PET imaging analysis; type: ADME, organism-based; details: 0.5 h
[6] = Octanol/PBS partition coefficient, log D of the radiolabeled compound at 420 to 460 kBq at pH 7.4 by gamma-counting analysis; type: physicochemical; details: dose 420-460 kBq
[7] = In vivo biodistribution in adult female C57Bl/6 mouse assessed as accumulation in bladder at 5 MBq, iv measured after 2 to 85 mins by PET imaging analysis; type: ADME, organism-based, Urinary bladder; details: time 2-85 min
[8] = Stability in mouse serum measured up to 90 mins at 3.1 to 8.7 MBq by analytical radio-HPLC analysis; type: ADME, cell-free; details: dose 3.1-8.7 MBq, read-out: Stability
[9] = In vivo biodistribution in adult female C57Bl/6 mouse assessed as accumulation in liver at about 5 MBq, iv measured after 15 mins by PET imaging analysis; type: ADME, organism-based; details: 0.25 h
[10] = In vivo biodistribution in adult female C57Bl/6 mouse assessed as accumulation in intestine at about 5 MBq, iv measured after 2 to 85 mins by PET imaging analysis; type: ADME, organism-based; details: time 2-85 min
[11] = In vivo biodistribution in adult female C57Bl/6 mouse assessed as accumulation in bladder at 5 MBq, iv measured after 15 to 85 mins by PET imaging analysis; type: ADME, organism-based, Urinary bladder; details: time 15-85 min

Sequence of P2X purinoceptor 4 (Q99571 whole entry): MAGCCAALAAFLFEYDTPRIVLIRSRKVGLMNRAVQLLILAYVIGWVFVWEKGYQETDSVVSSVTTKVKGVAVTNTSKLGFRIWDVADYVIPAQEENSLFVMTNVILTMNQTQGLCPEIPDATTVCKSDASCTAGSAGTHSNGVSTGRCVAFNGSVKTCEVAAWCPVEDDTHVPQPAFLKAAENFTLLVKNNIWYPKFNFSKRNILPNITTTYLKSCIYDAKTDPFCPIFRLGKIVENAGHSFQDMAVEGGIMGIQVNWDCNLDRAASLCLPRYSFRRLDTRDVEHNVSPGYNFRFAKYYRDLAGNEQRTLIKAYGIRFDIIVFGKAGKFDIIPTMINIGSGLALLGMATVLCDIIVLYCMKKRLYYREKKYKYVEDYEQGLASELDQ

Compound	IC50 (P2X purinoceptor 4; read-out: IC50) [nM]	also measured
Cc1cc(B(O)O)ccc1S(=O)(=O)Nc1ccc(N2C(=O)CC(=O)Nc3c2ccc2ccccc32)cc1	48	–
COc1ccc(S(=O)(=O)Nc2ccc(N3C(=O)CC(=O)Nc4c3ccc3ccccc43)cc2)cc1	3950	–
O=C(Cc1cc(F)ccc1Cl)Nc1ccc(N2C(=O)CC(=O)Nc3c2ccc2ccccc32)cc1	442	–
O=C1CC(=O)N(c2ccc(NS(=O)(=O)c3ccc(F)cc3Cl)cc2)c2ccc3ccccc3c2N1	128	Stability [1]: 93%; logD [2]: 3.55; fraction unbound [3]: < 0.02
Nc1ccc(N2C(=O)CC(=O)Nc3c2ccc2ccccc32)cc1	990	–
O=C1CC(=O)N(c2ccc(NS(=O)(=O)c3ccc(B(O)O)cc3Cl)cc2)c2ccc3ccccc3c2N1	891	–
O=C1CC(=O)N(c2ccc(NS(=O)(=O)Cc3ccc(F)cc3Br)cc2)c2ccc3ccccc3c2N1	76	–
O=C1CC(=O)N(c2ccc(NS(=O)(=O)c3cccnc3F)cc2)c2ccc3ccccc3c2N1	1120	Stability [1]: 95%; logD [2]: 1.78; IC50 (P2X purinoceptor 4; read-out: pIC50 (converted)): 1100 nM; fraction unbound [3]: 0.06
N#Cc1ccc(S(=O)(=O)Nc2ccc(N3C(=O)CC(=O)Nc4c3ccc3ccccc43)cc2)c(Cl)c1	14100	–
COc1cc(F)ccc1S(=O)(=O)Nc1ccc(N2C(=O)CC(=O)Nc3c2ccc2ccccc32)cc1	59	–
Cc1cccc(Cl)c1S(=O)(=O)Nc1ccc(N2C(=O)CC(=O)Nc3c2ccc2ccccc32)cc1	385	–
Cc1ccc(Cl)c(S(=O)(=O)Nc2ccc(N3C(=O)CC(=O)Nc4c3ccc3ccccc43)cc2)c1	373	–
O=C1CC(=O)N(c2ccc(NS(=O)(=O)c3cccnc3Cl)cc2)c2ccc3ccccc3c2N1	318	–
O=C1CC(=O)N(c2ccc(NS(=O)(=O)Cc3ccc(F)cc3Cl)cc2)c2ccc3ccccc3c2N1	23	Stability [1]: 58%; logD [2]: 3.71; fraction unbound [3]: < 0.02
O=C1CC(=O)N(c2ccc(NS(=O)(=O)c3ccccc3Br)cc2)c2ccc3ccccc3c2N1	240	–
O=C1CC(=O)N(c2ccc(NS(=O)(=O)c3ccccc3I)cc2)c2ccc3ccccc3c2N1	264	–
CN1C(=O)CC(=O)N(c2ccc(N(C)S(=O)(=O)c3ccccc3)cc2)c2ccc3ccccc3c21	> 10000	–
O=C1CC(=O)N(c2ccc(NS(=O)(=O)C3CCCCC3)cc2)c2ccc3ccccc3c2N1	2580	–
O=C1CC(=O)N(c2ccc(NS(=O)(=O)Cc3cc(F)ccc3Cl)cc2)c2ccc3ccccc3c2N1	81	–
Cc1cc(Br)ccc1CS(=O)(=O)Nc1ccc(N2C(=O)CC(=O)Nc3c2ccc2ccccc32)cc1	97	–
O=C1CC(=O)N(c2ccc(NS(=O)(=O)c3cccnc3[N+](=O)[O-])cc2)c2ccc3ccccc3c2N1	1000	–
O=C1CC(=O)N(c2ccc(NS(=O)(=O)c3ccccc3F)cc2)c2ccc3ccccc3c2N1	1170	–
O=C1CC(=O)N(c2ccc(NC(=O)c3ccccc3)cc2)c2ccc3ccccc3c2N1	585	–

Compound	IC50 (P2X purinoceptor 4; read-out: IC50) [nM]	also measured
Cc1cc(F)ccc1CS(=O)(=O)Nc1ccc(N2C(=O)CC(=O)Nc3c2ccc2ccccc32)nc1	25	Stability [1]: 57%; logD [2]: 2.36; fraction unbound [3]: 0.05
O=C1CC(=O)N(c2ccc(NS(=O)(=O)Cc3ccc(F)cc3)cc2)c2ccc3ccccc3c2N1	88	–
Cc1cc(F)ccc1CS(=O)(=O)Nc1ccc(N2C(=O)CC(=O)Nc3c2ccc2ccccc32)cc1	–	Stability [1]: 64%; inhibition (THP-1): Active; Compund More Potent Than Bay1797; IC50 (P2X purinoceptor 4; read-out: pIC50 (converted)): 7.59 nM; fraction unbound [3]: < 0.02
O=C1CC(=O)N(c2ccc(NS(=O)(=O)c3ccc(F)cc3Br)cc2)c2ccc3ccccc3c2N1	64	–
COc1ccc(Br)cc1S(=O)(=O)Nc1ccc(N2C(=O)CC(=O)Nc3c2ccc2ccccc32)cc1	2330	–
Cc1cc(Br)ccc1S(=O)(=O)Nc1ccc(N2C(=O)CC(=O)Nc3c2ccc2ccccc32)cc1	263	–
O=C1CC(=O)N(c2ccc(NS(=O)(=O)c3cc(F)ccc3Cl)cc2)c2ccc3ccccc3c2N1	135	Stability [1]: 98%; logD [2]: 3.25; fraction unbound [3]: < 0.02
O=C1CC(=O)N(c2ccc(NC(=O)c3cccnc3Cl)cc2)c2ccc3ccccc3c2N1	780	–
O=C1CC(=O)N(c2ccc(NS(=O)(=O)c3ccc(F)cc3)cc2)c2ccc3ccccc3c2N1	24800	–
Cc1cc([18F])ccc1S(=O)(=O)Nc1ccc(N2C(=O)CC(=O)Nc3c2ccc2ccccc32)cc1	–	remaining at […] [4]: > 99%; Drug uptake [5]: Active; logD [6]: 3.5; Drug uptake [7]: Not_active; remaining at […] [8]: > 99%; Drug uptake [9]: Active
COc1ccccc1S(=O)(=O)Nc1ccc(N2C(=O)CC(=O)Nc3c2ccc2ccccc32)cc1	90	–
O=C(Cc1cc(Br)ccc1Cl)Nc1ccc(N2C(=O)CC(=O)Nc3c2ccc2ccccc32)cc1	1000	–
Cc1cc([18F])ccc1CS(=O)(=O)Nc1ccc(N2C(=O)CC(=O)Nc3c2ccc2ccccc32)cc1	–	remaining at […] [4]: > 99%; Drug uptake [10]: Active; Drug uptake [11]: Active; logD [6]: 3.43; remaining at […] [8]: > 99%
O=C1CC(=O)N(c2ccc(NS(=O)(=O)Cc3ccccc3Cl)cn2)c2ccc3ccccc3c2N1	17	–
O=C1CC(=O)N(c2ccc(NC(=O)c3cccnc3[N+](=O)[O-])cc2)c2ccc3ccccc3c2N1	2280	–
COc1ccc(S(=O)(=O)Nc2ccc(N3C(=O)CC(=O)Nc4c3ccc3ccccc43)cc2)c(Cl)c1	5970	–
O=C1CC(=O)N(c2ccc(NS(=O)(=O)c3c(Cl)cccc3Cl)cc2)c2ccc3ccccc3c2N1	650	–
O=C1CC(=O)N(c2ccc(NS(=O)(=O)Cc3ccccc3)cc2)c2ccc3ccccc3c2N1	191	–
O=C1CC(=O)N(c2ccc(NS(=O)(=O)c3cccc4ccccc34)cc2)c2ccc3ccccc3c2N1	1650	–
COc1cc(Br)ccc1S(=O)(=O)Nc1ccc(N2C(=O)CC(=O)Nc3c2ccc2ccccc32)cc1	344	–
Nc1ccc(N2C(=O)CC(=O)Nc3c2ccc2ccccc32)nc1	6460	–
Cc1cc(F)ccc1CS(=O)(=O)Nc1ccc(N2C(=O)CC(=O)Nc3c2ccc2ccccc32)cn1	14	Stability [1]: 67%; logD [2]: 2.59; fraction unbound [3]: 0.03
O=C1CC(=O)N(c2ccc(NS(=O)(=O)c3cc(Br)ccc3Cl)cc2)c2ccc3ccccc3c2N1	175	–

Compound	IC50 (P2X purinoceptor 4; read-out: IC50) [nM]	also measured
Cc1ccc(F)cc1S(=O)(=O)Nc1ccc(N2C(=O)CC(=O)Nc3c2ccc2ccccc32)cc1	179	–
Cc1ccccc1S(=O)(=O)Nc1ccc(N2C(=O)CC(=O)Nc3c2ccc2ccccc32)cc1	115	–
Nc1ccc(N2C(=O)CC(=O)Nc3c2ccc2ccccc32)cn1	9920	–
O=C1CC(=O)N(c2ccc(NS(=O)(=O)c3ccccc3Cl)cc2)c2ccc3ccccc3c2N1	445	–
O=C1CC(=O)N(c2ccc(NS(=O)(=O)Cc3ccccc3Cl)cc2)c2ccc3ccccc3c2N1	–	Stability [1]: 71%; logD [2]: 3.39; fraction unbound [3]: < 0.02
O=C1CC(=O)N(c2ccc(NS(=O)(=O)Cc3c(Cl)cccc3Cl)cc2)c2ccc3ccccc3c2N1	74	–
O=C1CC(=O)N(c2ccccc2)c2ccc3ccccc3c2N1	9280	–
O=C1CC(=O)N(c2ccc(NS(=O)(=O)Cc3ccc(B(O)O)cc3Cl)cc2)c2ccc3ccccc3c2N1	295	–
O=C1CC(=O)N(c2ccc(NS(=O)(=O)Cc3ccc(Br)cc3Cl)cc2)c2ccc3ccccc3c2N1	531	–
O=C1CC(=O)N(c2ccc(NC(=O)c3ccccc3F)cc2)c2ccc3ccccc3c2N1	2300	–
COc1ccc(F)cc1S(=O)(=O)Nc1ccc(N2C(=O)CC(=O)Nc3c2ccc2ccccc32)cc1	473	–
CNCC[C@H](Oc1cccc2ccccc12)c1cccs1 [DULOXETINE]	5880	–
Cc1cc(B(O)O)ccc1CS(=O)(=O)Nc1ccc(N2C(=O)CC(=O)Nc3c2ccc2ccccc32)cc1	372	–
O=C1CC(=O)N(c2ccc(NS(=O)(=O)c3ccc(C(F)(F)F)cc3Cl)cc2)c2ccc3ccccc3c2N1	3390	–
O=C1CC(=O)N(c2ccc(NC(=O)c3ccccc3Cl)cc2)c2ccc3ccccc3c2N1	481	–
O=C1CC(=O)N(c2ccc(NS(=O)(=O)Cc3ccccc3Cl)nc2)c2ccc3ccccc3c2N1	76	–
O=C1CC(=O)N(c2ccc(NS(=O)(=O)c3ccc(Br)cc3Cl)cc2)c2ccc3ccccc3c2N1	1590	–
CN(c1ccc(N2C(=O)CC(=O)Nc3c2ccc2ccccc32)cc1)S(=O)(=O)c1ccccc1	683	–
O=C1CC(=O)N(c2ccc(NC(=O)c3cccnc3F)cc2)c2ccc3ccccc3c2N1	2410	–
O=C1CC(=O)N(c2ccc(NS(=O)(=O)Cc3c(F)cccc3Cl)cc2)c2ccc3ccccc3c2N1	108	–
O=C1CC(=O)N(c2ccc(NS(=O)(=O)c3cc(C(F)(F)F)ccc3Cl)cc2)c2ccc3ccccc3c2N1	2730	–
Cc1cc(F)ccc1S(=O)(=O)Nc1ccc(N2C(=O)CC(=O)Nc3c2ccc2ccccc32)cc1	–	Stability [1]: 93%; inhibition (THP-1): Active; Compund More Potent Than Bay1797; fraction unbound [3]: < 0.02

From ChEMBL document CHEMBL6109055, “Naphtho[1,2-b][1,4]diazepinedione-Based P2X4 Receptor Antagonists from Structure-Activity Relationship Studies toward PET Tracer Development” (J Med Chem, 2025)
